Laboratory results published in PubChem BioAssay AID1963442 (Molecular Pharmacology Branch, DTP, NCI, 2024).

Tested on: MPNST complex spheroid with HUVEC/MSC, growth, % test/control
Assay: Anticancer human tumor MPNST cell line growth inhibition [Asc];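 further: compounds left on spheroids for seven days before reading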
Settings: for IC50: curve of first compound; for viability, T/C: stronger effect = lower value
Method: Multicellular complex tumor spheroid response to apoptosis pathway targeting inhibitors Alrizomadlin, Pelcitoclax, and Dasminapant in combination with a variety of drugs and investigational agents in selected tumor cell lines
The MDM2 inhibitor alrizomadlin, the Bcl-2/Bcl-xL inhibitor pelcitoclax, and the IAPs inhibitor dasminapant were evaluated both individually and in combination with standard of care and investigational anticancer small molecules within a complex spheroid model of solid tumors. . Complex spheroids include a stromal component modeled by human endothelial cells (HUVEC) and fibroblasts modeled by human mesenchymal stem cells (MSCs). The concentration ranges selected for each drug and investigational agent were based upon clinically achievable concentrations if the clinical Cmax of the agent was known.
Compounds. The drugs and investigational agents: alrizomadlin (APG-115; NSC831270), pelcitoclax (APG-1252; NSC835773), dasminapant (APG-1387;NSC834197), TAK-243 (NSC785004), copanlisib (NSC809693), olaparib (NSC753686), talazoparib (NSC767125), cobimetinib (NSC 768068), eltanexor (KPT-8602, NSC 794443), abemaciclib (NSC 768073), sotorasib (NSC818433), adagrasib (NSC 831453), MRTX-1133 (NSC 836407), Iadademestat (ORY1001, NSC 806812), and RMC-4630 (NSC839698), were obtained from the NCI Developmental Therapeutics Program Chemical Repository. The FDA-approved anticancer drug set is available from the Developmental Therapeutics Program at https://dtp.cancer.gov/organization/dscb/obtaining/available plates.htm. […] The stock solutions were prepared in dimethyl sulfoxide (DMSO, Sigma-Aldrich, St. Louis, MO, cat. D2650) at 800-fold the tested concentration and stored at -70 degrees C prior to their use. All drugs and investigational agents were tested over a range starting from a high concentration at or near the clinical Cmax and decreasing in half-log increments. If the clinical Cmax for an agent had not been determined, the highest concentration tested was 10 microM.
The patient-derived cancer (PDC) cell lines include five colon adenocarcinomas: 186277-243-T-J2-PDC, 616215-338-R-J1-PDC, 439559-082-T-J2-PDC, 463943-066-T-J2-PDC, and 519858-162-T-J1-PDC; three pancreatic carcinomas: 323965-272-R-J2-PDC, 521955-158-R6-J3-PDC, and 521955-158-R2-J5-PDC; two uterine sarcomas: 327498-152-R-J2-PDC and 993429-296-R-J1-PDC; two rhabdomyosarcomas: 755483-174-R-J1-PDC and 772245-204-R-J1-PDC; two soft tissue sarcomas: 126254-015-R-J1-PDC and 494315-158-R-J1-PDC; two malignant fibrous histiocytomas: 317291-083-R-J1-PDC and 596521-263-R-J1-PDC; two breast carcinomas: 171881-019-R-J1-PDC and 885512-296-R-J2-PDC; and one ovarian carcinoma: 6556581-035-R-J-PDC were obtained from the NCI PDMR, (https://pdmr.cancer.gov). The established cell lines HSSY-2 synovial sarcoma (RRID:CVCL 8719), SYO-1 synovial sarcoma (RRID:CVCL_7146), MPNST malignant peripheral neural sheath tumor were obtained from the Sloan Kettering Institute. The following established cell lines were purchased from the American Type Culture Collection (ATCC, Manassas, VA), Sor the received from the NCI repository:, PANC-1 pancreatic carcinoma (CRL-1469, RRID:CVCL_0480), OVCAR-5 ovarian carcinoma (RRID:CVCL_1628), OVCAR-8 ovarian carcinoma (RRID:CVCL_1629), , MCF-7 breast carcinoma (CRL-12584, RRID:CVCL_0031), MDA-MB-231 breast carcinoma (CRL-12532, RRID:CVCL_0062), NCI-H1876 small cell lung carcinoma (CRL-5902, RRID:CVCL_1503), NCI-H510A small cell lung carcinoma (HTB-184, RRID:CVCL_1565), NCI-H1417 (CRL-5869, RRID:CVCL_1469), and NCI-H196 small cell lung carcinoma (CRL-5823, RRID:CVCL_1509). Dr. Peter Houghton (Greehey Children's Cancer Research Institute, University of Texas Health Science Center, San Antonio, TX) provided Rh-18 rhabdomyosarcoma (RRID:CVCL_1659). Pooled donor human umbilical vein endothelial cells (HUVEC, Lonza, cat. CC-2519) and human mesenchymal stem cells (hMSC, Lonza, cat. PT-2501) were purchased from Lonza (Walkersville, MD).
Cell Culture. […]

## C=C(F)C(=O)N1CCN(c2nc(OCC3CCCN3C)nc3c2CCN(c2cccc4cccc(Cl)c24)C3)CC1CC#N (stereo not given) + Cc1c(S(C)(=O)=O)c(-c2cc(F)cc(N3CCN(c4ccc(NS(=O)(=O)c5ccc(NC(CCN6CCC(C(=O)OCCCP(=O)(O)O)CC6)CSc6ccccc6)c(S(=O)(=O)C(F)(F)F)c5)cc4)CC3)c2)c(-c2ccc(Cl)cc2)n1C(C)C
Second compound 0.1 µM
  IC50: > 10 µM
Second compound 0.316 µM
  IC50: 3.72 µM
Second compound 1 µM
  IC50: 2.88 µM
Second compound 3.16 µM
  IC50: 1.98 µM
Second compound 10 µM
  IC50: 3.3 µM
Second compound 0.1 µM, first compound 0.0316 µM
  viability, T/C: 65.5%
Second compound 0.1 µM, first compound 0.1 µM
  viability, T/C: 66.2%
Second compound 0.1 µM, first compound 0.316 µM
  viability, T/C: 69.8%
Second compound 0.1 µM, first compound 1 µM
  viability, T/C: 81.1%
Second compound 0.1 µM, first compound 3.16 µM
  viability, T/C: 74.7%
Second compound 0.1 µM, first compound 10 µM
  viability, T/C: 51.3%
Second compound 0.316 µM, first compound 0.0316 µM
  viability, T/C: 67.2%
Second compound 0.316 µM, first compound 0.1 µM
  viability, T/C: 61.1%
Second compound 0.316 µM, first compound 0.316 µM
  viability, T/C: 69.6%
Second compound 0.316 µM, first compound 1 µM
  viability, T/C: 58%
Second compound 0.316 µM, first compound 3.16 µM
  viability, T/C: 52.4%
Second compound 0.316 µM, first compound 10 µM
  viability, T/C: 36.2%
Second compound 1 µM, first compound 0.0316 µM
  viability, T/C: 73.5%
Second compound 1 µM, first compound 0.1 µM
  viability, T/C: 75.4%
Second compound 1 µM, first compound 0.316 µM
  viability, T/C: 67.6%
Second compound 1 µM, first compound 1 µM
  viability, T/C: 53.9%
Second compound 1 µM, first compound 3.16 µM
  viability, T/C: 53.5%
Second compound 1 µM, first compound 10 µM
  viability, T/C: 41.1%
Second compound 3.16 µM, first compound 0.0316 µM
  viability, T/C: 78.2%
Second compound 3.16 µM, first compound 0.1 µM
  viability, T/C: 70%
Second compound 3.16 µM, first compound 0.316 µM
  viability, T/C: 64.5%
Second compound 3.16 µM, first compound 1 µM
  viability, T/C: 57.3%
Second compound 3.16 µM, first compound 3.16 µM
  viability, T/C: 46.2%
Second compound 3.16 µM, first compound 10 µM
  viability, T/C: 32.7%
Second compound 10 µM, first compound 0.0316 µM
  viability, T/C: 53.5%
Second compound 10 µM, first compound 0.1 µM
  viability, T/C: 65.8%
Second compound 10 µM, first compound 0.316 µM
  viability, T/C: 71.2%
Second compound 10 µM, first compound 1 µM
  viability, T/C: 64.4%
Second compound 10 µM, first compound 3.16 µM
  viability, T/C: 50.8%
Second compound 10 µM, first compound 10 µM
  viability, T/C: 30.3%

## C=C(F)C(=O)N1CCN(c2nc(OCC3CCCN3C)nc3c2CCN(c2cccc4cccc(Cl)c24)C3)CC1CC#N (stereo not given) + CCN1C(C(=O)NC23CCC(C(=O)O)(CC2)CC3)C(c2cccc(Cl)c2F)C2(C(=O)Nc3cc(Cl)ccc32)C12CCCCC2
Second compound 0.03 µM
  IC50: > 10 µM
Second compound 0.0949 µM
  IC50: > 10 µM
Second compound 0.3 µM
  IC50: > 10 µM
Second compound 0.949 µM
  IC50: > 10 µM
Second compound 3 µM
  IC50: 3.89 µM
Second compound 0.03 µM, first compound 0.0316 µM
  viability, T/C: 56.3%
Second compound 0.03 µM, first compound 0.1 µM
  viability, T/C: 61.1%
Second compound 0.03 µM, first compound 0.316 µM
  viability, T/C: 65.2%
Second compound 0.03 µM, first compound 1 µM
  viability, T/C: 63.1%
Second compound 0.03 µM, first compound 3.16 µM
  viability, T/C: 72.9%
Second compound 0.03 µM, first compound 10 µM
  viability, T/C: 65.6%
Second compound 0.0949 µM, first compound 0.0316 µM
  viability, T/C: 87.5%
Second compound 0.0949 µM, first compound 0.1 µM
  viability, T/C: 59%
Second compound 0.0949 µM, first compound 0.316 µM
  viability, T/C: 77.5%
Second compound 0.0949 µM, first compound 1 µM
  viability, T/C: 75.6%
Second compound 0.0949 µM, first compound 3.16 µM
  viability, T/C: 67%
Second compound 0.0949 µM, first compound 10 µM
  viability, T/C: 66.2%
Second compound 0.3 µM, first compound 0.0316 µM
  viability, T/C: 92.4%
Second compound 0.3 µM, first compound 0.1 µM
  viability, T/C: 85.3%
Second compound 0.3 µM, first compound 0.316 µM
  viability, T/C: 106%
Second compound 0.3 µM, first compound 1 µM
  viability, T/C: 63.6%
Second compound 0.3 µM, first compound 3.16 µM
  viability, T/C: 82.8%
Second compound 0.3 µM, first compound 10 µM
  viability, T/C: 68.8%
Second compound 0.949 µM, first compound 0.0316 µM
  viability, T/C: 88.5%
Second compound 0.949 µM, first compound 0.1 µM
  viability, T/C: 80.3%
Second compound 0.949 µM, first compound 0.316 µM
  viability, T/C: 97.5%
Second compound 0.949 µM, first compound 1 µM
  viability, T/C: 62.1%
Second compound 0.949 µM, first compound 3.16 µM
  viability, T/C: 55.4%
Second compound 0.949 µM, first compound 10 µM
  viability, T/C: 57%
Second compound 3 µM, first compound 0.0316 µM
  viability, T/C: 84.8%
Second compound 3 µM, first compound 0.1 µM
  viability, T/C: 74.8%
Second compound 3 µM, first compound 0.316 µM
  viability, T/C: 73%
Second compound 3 µM, first compound 1 µM
  viability, T/C: 60.8%
Second compound 3 µM, first compound 3.16 µM
  viability, T/C: 50.8%
Second compound 3 µM, first compound 10 µM
  viability, T/C: 42.7%
